In US20260297092A1, “PYRAZOLOPYRIMIDINE DERIVATIVES AS INHIBITORS OF NLRP3” (Takeda Pharmaceutical Company Limited, priority 2023, published 2026):

Experiments:
[1] = system: TNF-α (NF-κB pathway, THP-1 cells); experiment: TNF-α Assay (IC50); assay type: cell-based, human; conditions: 600 ng/mL LPS, 3 hours
Summary of the method: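 THP-1 cells differentiated to macrophages with 25 ng/mL IFN for 24 h, plated 40,000/well in serum-free medium, preincubated with compounds 30 min at 37 °C, then stimulated with 600 ng/mL LPS for 3 h. Supernatant TNF-α measured by ELISA; IC50 from four-parameter logistic fit, 100% inhibition defined by TPCA-1.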

[2] = system: NLRP3 inflammasome (IL-1β production in THP-1 cells); experiment: IL-1β TR-FRET Assay (percentage of inhibition at 300 nM, 6 μM or 10 μM); assay type: cell-based, human; conditions: LPS priming, ATP activation; for inhibition at 0.3 µM / inhibition at 6 µM: Homo sapiens; for inhibition at 0.3 µM: THP-1, 300 nM, read-out: IL-1β inhibitory rate at 300 nM (%); for inhibition at 6 µM: THP-1, 6 μM, read-out: IL-1β inhibitory rate at 6 μM (%)
Summary of the method: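 THP-1 cells were differentiated with 25 ng/mL IFN-γ for 24 h, primed with 50 ng/mL LPS in serum-free medium for 24 h, then given compound for 30 min before 20 mM ATP for 2 h. Supernatant IL-1β was measured by HTRF after 16-24 h at room temperature. Inhibition was normalized between DMSO (high) and 3 μM MCC-950 (low).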

IC50 ([1]; Homo sapiens) [µM] | IC50 [1] [µM] | Compound | inhibition at 0.3 µM [2] [%] | inhibition at 6 µM [2] [%] | IL-1β inhibitory rate at 300 nM (%) ([2]; 300 nM, 0.3 µM)
> 30 |  | CCOc1nc2nn(-c3c(F)cc(C)cc3C(F)(F)F)cc2c(=O)[nH]1 [Example 73, 6-ethoxy-2-[2-fluoro-4-methyl-6-(trifluoromethyl)phenyl]-2,5-dihydro-4H-pyrazolo[3,4-d]pyrimidin-4-one] | 97 |  | 
> 30 |  | CCOc1nc2nn(-c3ccc(Cl)cc3O)c(C)c2c(=O)[nH]1 [Example 60, 2-(4-chloro-2-hydroxyphenyl)-6-ethoxy-3-methyl-2,5-dihydro-4H-pyrazolo[3,4-d]pyrimidin-4-one] | 100 |  | 
> 30 |  | Cc1ccc(-n2nc3nc(OCC(C)(F)F)[nH]c(=O)c3c2C)c(O)c1 [Example 91, 6-(2,2-difluoropropoxy)-2-(2-hydroxy-4-methylphenyl)-3-methyl-2,5-dihydro-4H-pyrazolo[3,4-d]pyrimidin-4-one] | 76 |  | 
> 30 |  | CCOc1nc2nn(-c3c(F)cc(C4CC4)cc3Cl)cc2c(=O)[nH]1 [Example 137, 2-(2-chloro-4-cyclopropyl-6-fluorophenyl)-6-ethoxy-2,5-dihydro-4H-pyrazolo[3,4-d]pyrimidin-4-one] | 98 |  | 
> 30 |  | Cc1cc(C)c(-n2cc3c(=O)[nH]c(C4CN(C)CCO4)nc3n2)c(O)c1 (stereo not shown) [Example 88, 2-(2-hydroxy-4,6-dimethylphenyl)-6-(4-methylmorpholin-2-yl)-2,5-dihydro-4H-pyrazolo[3,4-d]pyrimidin-4-one] | 86 |  | 
> 30 |  | CO[C@@H]1CC[C@H]1c1nc2nn(-c3c(C)cc(C4CC4)cc3C)cc2c(=O)[nH]1 (racemic) [Example 253, racemic mixture of 2-(4-cyclopropyl-2,6-dimethylphenyl)-6-[(1R,2S)-2-methoxycyclobutyl]-2,5-dihydro-4H-pyrazolo[3,4-d]pyrimidin-4-one and 2-(4-cyclopropyl-2,6-dimethylphenyl)-6-[(1S,2R)-2-methoxycyclobutyl]-2,5-dihydro-4H-pyrazolo[3,4-d]pyrimidin-4-one] |  | 95 | 
> 30 |  | Cc1cc(C)c(-n2cc3c(=O)[nH]c(-c4ccccn4)nc3n2)c(O)c1 [Example 9, 2-(2-hydroxy-4,6-dimethylphenyl)-6-(pyridin-2-yl)-2,5-dihydro-4H-pyrazolo[3,4-d]pyrimidin-4-one] | 100 |  | 
 | > 30 | Cc1cc(C2CC2)cc(C)c1-n1cc2c(=O)[nH]c(C3CCCO3)nc2n1 (single isomer, unassigned) [Example 228, 2-(4-cyclopropyl-2,6-dimethylphenyl)-6-[(2S)-oxolan-2-yl]-2,5-dihydro-4H-pyrazolo[3,4-d]pyrimidin-4-one or 2-(4-cyclopropyl-2,6-dimethylphenyl)-6-[(2R)-oxolan-2-yl]-2,5-dihydro-4H-pyrazolo[3,4-d]pyrimidin-4-one (HPLC Method A: tR2)] |  |  | 79
> 30 |  | Cc1nc(-c2nc3nn(-c4c(F)cc(C5CC5)cc4C(F)F)cc3c(=O)[nH]2)co1 [Example 298, 2-[4-cyclopropyl-2-(difluoromethyl)-6-fluorophenyl]-6-(2-methyl-1,3-oxazol-4-yl)-2,5-dihydro-4H-pyrazolo[3,4-d]pyrimidin-4-one] |  | 99 | 
> 30 |  | CCOc1nc2nn(-c3c(C)cc(C4CC4)cc3OC(F)F)cc2c(=O)[nH]1 [Example 222, 2-[4-cyclopropyl-2-(difluoromethoxy)-6-methylphenyl]-6-ethoxy-2,5-dihydro-4H-pyrazolo[3,4-d]pyrimidin-4-one] | 98 |  | 
> 30 |  | CCOc1nc2nn(-c3c(C(F)(F)F)cc(C4CC4)nc3C)cc2c(=O)[nH]1 [Example 269, 2-[6-cyclopropyl-2-methyl-4-(trifluoromethyl)pyridin-3-yl]-6-ethoxy-2,5-dihydro-4H-pyrazolo[3,4-d]pyrimidin-4-one] |  | 100 | 
